In test [1] the test system is senior dogs. Nature of the test: Actiwatch activity recording, Example 2 (melatonin only, cross-over, AM or PM). It counts as in vivo, dog. The settings on record: for Total Daytime Activity Counts: melatonin only, mean +/- std error. The protocol: Using a cross-over design, all animals were administered a control placebo and a treatment supplement containing melatonin. The animals were senior animals, dogs greater than 10 years of age. There were 4 males and 4 females in each group. For the intervention phases (phases 2 and 4), all animals were administered melatonin in the AM or PM. During the control and cross-over phases (phase 1 and 3, respectively) the animals were administered a placebo comprising methylcellulose contained in a gel capsule in the AM or PM, as appropriate. Each phase lasted 35 days. Starting on day 29 of each phase, the animals locomotor behavioral activity was monitored for 4 consecutive days. The placebo consisted of the carrier (methylcellulose) contained in a gel capsule and was provided during the control phases (Phases 1 and 3) either with the AM or PM feeding, as appropriate to complement the supplement time (luring the following intervention phase. For example, placebo in AM during phase 1, then supplement in AM during phase 2. For phase 2, the first supplement treatment phase, the animals were given supplements of melatonin. Further, for half of the animals, the supplements were in the morning with the AM feeding and half were given in the evening with the PM feeding. Thus, of the 4 males, 2 were administered the melatonin in the morning and two in the evening. During phase 3, the second control phase, delivery of the methylcellulose in a gel capsule was provided either with the AM or PM feeding, as appropriate to cross-over the treatment from phase 1-2. For phase 4, the second supplement treatment phase, the procedure was exactly the same as phase 2, except that for a given animal the supplementation time was switched from phase 2. Thus, if male was administered melatonin in the morning with the AM feeding in phase 2, the male was administered melatonin in the evening with the PM feeding in phase 4. Data analysis of periods indicated no period effect. Therefore, all control data were compiled into a single dataset, as well as all treatment data for each supplement time (AM or PM). Statistical analysis was based on AM control vs. AM treatment, and PM control vs. PM Treatment. Twenty-four hour activity rhythms were assessed for 5 consecutive days and 5 nights for Example 1 or 3 consecutive days and 4 nights for Example 2 using the Actiwatch method (Mini-Mitter® Actiwatch-16® activity monitoring system, Respironics Co. Inc., Bend, Oreg.). The Actiwatch® was placed inside a specially designed animal case and attached to a collar around the dog's neck. The dogs were allowed to follow their usual patterns of activity, test, exercise, and feeding. Daytime activity was recorded to represent the 12 hour light phase from 7 am to 7 pm. […]

The test system of test [2] is senior dogs. Nature of the test: Actiware sleep analysis, Example 2 (melatonin only, cross-over, AM or PM). It counts as in vivo, dog. The settings on record: for Nap Duration / Total Daytime Naps / Total Daytime Sleep Minutes / Total Night-Time Awakenings / Total Night-Time Wake Minutes: melatonin only, mean +/- std error. The method, then:
Using a cross-over design, all animals were administered a control placebo and a treatment supplement containing melatonin. The animals were senior animals, dogs greater than 10 years of age. There were 4 males and 4 females in each group. For the intervention phases (phases 2 and 4), all animals were administered melatonin in the AM or PM. During the control and cross-over phases (phase 1 and 3, respectively) the animals were administered a placebo comprising methylcellulose contained in a gel capsule in the AM or PM, as appropriate.
Each phase lasted 35 days. Starting on day 29 of each phase, the animals locomotor behavioral activity was monitored for 4 consecutive days.
The placebo consisted of the carrier (methylcellulose) contained in a gel capsule and was provided during the control phases (Phases 1 and 3) either with the AM or PM feeding, as appropriate to complement the supplement time (luring the following intervention phase. For example, placebo in AM during phase 1, then supplement in AM during phase 2.
For phase 2, the first supplement treatment phase, the animals were given supplements of melatonin. Further, for half of the animals, the supplements were in the morning with the AM feeding and half were given in the evening with the PM feeding. Thus, of the 4 males, 2 were administered the melatonin in the morning and two in the evening.
During phase 3, the second control phase, delivery of the methylcellulose in a gel capsule was provided either with the AM or PM feeding, as appropriate to cross-over the treatment from phase 1-2.
For phase 4, the second supplement treatment phase, the procedure was exactly the same as phase 2, except that for a given animal the supplementation time was switched from phase 2. Thus, if male was administered melatonin in the morning with the AM feeding in phase 2, the male was administered melatonin in the evening with the PM feeding in phase 4.
Data analysis of periods indicated no period effect. Therefore, all control data were compiled into a single dataset, as well as all treatment data for each supplement time (AM or PM). Statistical analysis was based on AM control vs. AM treatment, and PM control vs. PM Treatment.
Twenty-four hour activity rhythms were assessed for 5 consecutive days and 5 nights for Example 1 or 3 consecutive days and 4 nights for Example 2 using the Actiwatch method (Mini-Mitter® Actiwatch-16® activity monitoring system, Respironics Co. Inc., Bend, Oreg.). The Actiwatch® was placed inside a specially designed animal case and attached to a collar around the dog's neck. The dogs were allowed to follow their usual patterns of activity, test, exercise, and feeding.
The Actiware® software was used to generate total daily, light phase (12-h daytime: 7 am-7 pm), and dark phase (12-h night-time: 7 PM-7 AM) total sleep or wake minutes. Light phase naps represent sleep bouts occurring during the 12-h light phase interval. Dark phase wake bouts relied awake activity during the night-time sleep interval and not the 12-h dark phase interval. Total number of bouts and bout duration were determined for both light phase naps and dark phase awakenings.
The total number of sleep minutes recorded during the daytime phase of Example 2 was used to calculate the number of nap bouts and average nap duration during this same period.

Turning to `COc1ccc2[nH]cc(CCNC(C)=O)c2c1` [Melatonin Only, melatonin], the “Total Daytime Activity Counts” value with senior dogs [1] (AM Supplement) was 115,705 +/− 23,249. In addition, in the test with senior dogs [1] (PM Supplement, 1 mg/kg BW, 35 days), the “Total Daytime Activity Counts” value is 114,816 +/− 34,282. The “reduction in total daytime activity counts compared to dogs on the control food” value in the test on senior dogs [1] (PM, melatonin 1 mg/kg BW, 35 days, not statistically significant) is given as 16%. The “daytime activity effect versus placebo group” value with senior dogs [1] (melatonin supplemented in the AM) is given as “not significantly different from the placebo group”. In the test with senior dogs [2] (AM Supplement), the “Nap Duration” value is recorded as 4.2 +/− 0.7, the “Total Daytime Naps” value is given as 58.3 +/− 3.5, the “Total Daytime Sleep Minutes” value is 240 ± 32 min and the “Total Night-Time Awakenings” value was 69.5 +/− 6.9. In the test with senior dogs [2] (AM Supplement), the “Total Night-Time Wake Minutes” value was found to be 198 ± 35 min. Further, in the test with senior dogs [2] (PM Supplement), the “Nap Duration” value is listed as 6.4 +/− 1.2, the “Total Daytime Naps” value is 45.5 +/− 4.7, the “Total Daytime Sleep Minutes” value was found to be 264 ± 28 min and the “Total Night-Time Awakenings” value was 52.6 +/− 5.7. The “Total Night-Time Wake Minutes” value with senior dogs [2] (PM Supplement) is 209 ± 37 min. Further, in the test on senior dogs [2] (PM, melatonin 1 mg/kg BW, 35 days, not statistically significant (p=0.25)), the “increase in total daytime sleep minutes compared to dogs on the control food” value was found to be 21%. In the test with senior dogs [2] (melatonin alone with the PM meal), the “decrease in total number of awakenings during the sleep phase compared to the control group” value is 22%. In the test on senior dogs [2] (melatonin with the AM meal), the “decrease in average nap length compared to control group” value was 31%, the “increase in the number of awakenings compared to control group” value was 16.6% and the “increase in the number of naps compared to control group” value was determined as 10%. Moreover, the “increase in night-time wake minutes compared to control group” value with senior dogs [2] (melatonin with the AM meal, not different from control data) worked out at 41%. Further, the “total number of naps during the 12 hour daytime phase compared to the control group” value in the test on senior dogs [2] (melatonin with the PM meal) was “did not change at all”. Moreover, in the test with senior dogs [2] (melatonin with the PM meal, 12 hour daytime phase), the “increase in average nap duration compared to the control group” value came to 18.5%. Besides, the “decrease in total night-time wake minutes compared to the control group” value with senior dogs [2] (melatonin with the PM meal, not statistically significant) was 18.6%.
